The nature of data set [1]: Antifungal activity against Colletotrichum coccodes MC1 assessed as radial growth inhibition at 64 ug/ml after 5 to 7 days relative to control. Format: functional.
Another data set deals with Aspergillus niger. As to the kind of experiment: Antifungal activity against Aspergillus niger ATCC 16404 assessed as radial growth inhibition at 64 ug/ml after 5 to 7 days relative to control. Format: functional. The settings on record: read-out: GI.
Data set [2] is described as follows: Antifungal activity against Fusarium oxysporum MF5 assessed as radial growth inhibition at 64 ug/ml after 5 to 7 days relative to control. In kind it is functional.
A short description of data set [3]: Antifungal activity against Fusarium sambucinum MF1 assessed as radial growth inhibition at 64 ug/ml after 5 to 7 days relative to control. In kind it is functional.
Data set [4] deals with Candida albicans. As to the kind of experiment: Antifungal activity against Candida albicans ATCC 90028 assessed as growth inhibition at 4 ug/ml after 48 hrs by broth microdilution method relative to control. Format: functional. The following applies: ATCC 90028, 48 h, read-out: GI. For orientation: In broth dilution the organism is exposed to a series of concentrations in liquid medium.

In data set [5] the test system is Candida albicans. As to the kind of experiment: Antifungal activity against Candida albicans ATCC 90028 assessed as growth inhibition at 0.5 ug/ml after 48 hrs by broth microdilution method relative to control. In kind it is functional. The settings on record: ATCC 90028, 48 h, read-out: GI.
The test system of data set [6] is Candida albicans. Nature of the data set: Antifungal activity against Candida albicans ATCC 90028 assessed as growth inhibition at 0.0313 ug/ml after 48 hrs by broth microdilution method relative to control. Format: functional. The settings on record: ATCC 90028, 48 h, read-out: GI.
The test system of data set [7] is Candida albicans. As to the kind of experiment: Antifungal activity against Candida albicans ATCC 90028 assessed as growth inhibition at 0.125 ug/ml after 48 hrs by broth microdilution method relative to control. In kind it is functional. The settings on record: ATCC 90028, 48 h, read-out: GI.
The test system of data set [8] is Candida albicans. As to the kind of experiment: Antifungal activity against Candida albicans ATCC 90028 assessed as growth inhibition at 8 ug/ml after 48 hrs by broth microdilution method relative to control. In kind it is functional. The settings on record: ATCC 90028, 48 h, read-out: GI.
Data set [9] has as its system Candida albicans. Nature of the data set: Antifungal activity against Candida albicans ATCC 90028 assessed as growth inhibition at 2 ug/ml after 48 hrs by broth microdilution method relative to control. Format: functional. The settings on record: ATCC 90028, 48 h, read-out: GI.
Data set [10] concerns Candida albicans. As to the kind of experiment: Antifungal activity against Candida albicans ATCC 90028 assessed as growth inhibition at 1 ug/ml after 48 hrs by broth microdilution method relative to control. In kind it is functional. The following applies: ATCC 90028, 48 h, read-out: GI.
The test system of data set [11] is Candida albicans. As to the kind of experiment: Antifungal activity against Candida albicans ATCC 90028 assessed as growth inhibition at 0.25 ug/ml after 48 hrs by broth microdilution method relative to control. The settings on record: ATCC 90028, 48 h, read-out: GI. Format: functional.
Data set [12] is described as follows: Toxicity in last instar larval stage of Galleria mellonella assessed as decrease in survival at 0.33% after 96 hrs.
Data set [13] relates to Candida albicans. Nature of the data set: Antifungal activity against Candida albicans ATCC 90028 after 18 to 48 hrs in presence of 2.5 ug/ml fluconazole by checkerboard assay. Format: functional.
Data set [14] relates to Candida albicans. Nature of the data set: Antifungal activity against Candida albicans ATCC 90028 after 18 to 48 hrs in presence of 5 ug/ml fluconazole by checkerboard assay. Format: functional.
Data set [15] can be described thus: Toxicity in last instar larval stage of Galleria mellonella assessed as survival at 16 ug/ml after 96 hrs.
The test system of data set [16] is Candida albicans. Nature of the data set: Antifungal activity against Candida albicans ATCC 90028 assessed as growth inhibition after 48 hrs in presence of osmotic protector 0.8 M sorbitol by broth microdilution method. Format: functional. The settings on record: ATCC 90028, 48 h.
The test system of data set [17] is Candida albicans. Nature of the data set: Fungicidal activity against Candida albicans ATCC 90028 at MIC after 7 days in presence of osmotic protector 0.8 M sorbitol by broth microdilution method. In kind it is functional.
For data set [18], the system named is Candida albicans. Nature of the data set: Antifungal activity against Candida albicans ATCC 90028 after 18 to 48 hrs in presence of 10 ug/ml fluconazole by checkerboard assay. In kind it is functional.
Data set [19] relates to Candida albicans. Nature of the data set: Antifungal activity against Candida albicans ATCC 90028 after 18 to 48 hrs in presence of 40 ug/ml fluconazole by checkerboard assay. Format: functional.
Data set [20] has as its system Candida albicans. Nature of the data set: Antifungal activity against Candida albicans ATCC 90028 after 18 to 48 hrs in presence of 1.25 ug/ml fluconazole by checkerboard assay. In kind it is functional.
In data set [21] the test system is Candida albicans. As to the kind of experiment: Antifungal activity against Candida albicans ATCC 90028 after 18 to 48 hrs in presence of 20 ug/ml fluconazole by checkerboard assay. In kind it is functional.
The test system of data set [22] is Candida albicans. As to the kind of experiment: Antifungal activity against Candida albicans ATCC 90028 assessed as growth inhibition at 16 ug/ml after 48 hrs by broth microdilution method relative to control. The following applies: ATCC 90028, 48 h, read-out: GI. In kind it is functional.
Data set [23] has as its system Candida albicans. Nature of the data set: Antifungal activity against Candida albicans ATCC 90028 assessed as growth inhibition after 7 days in presence of osmotic protector 0.8 M sorbitol by broth microdilution method. In kind it is functional. The settings on record: ATCC 90028, 168 h.
In data set [24] the test system is Candida albicans. Nature of the data set: Antifungal activity against Candida albicans ATCC 90028 assessed as growth inhibition after 18 to 48 hrs in presence of 1.25 ug/ml fluconazole by checkerboard assay. In kind it is functional.
In data set [25] the test system is Candida albicans. As to the kind of experiment: Antifungal activity against Candida albicans ATCC 90028 after 18 to 48 hrs in presence of 80 ug/ml fluconazole by checkerboard assay. Format: functional.
The test system of data set [26] is Candida albicans. Nature of the data set: Antifungal activity against Candida albicans ATCC 90028 assessed as growth inhibition after 48 hrs by broth microdilution method. The settings on record: ATCC 90028, 48 h. Format: functional.
The subject of data set [27] is Candida albicans. As to the kind of experiment: Antifungal activity against Candida albicans ATCC 90028 assessed as growth inhibition at 0.0625 ug/ml after 48 hrs by broth microdilution method relative to control. The following applies: ATCC 90028, 48 h, read-out: GI. In kind it is functional.

A word on the MIC: it is the lowest concentration found to suppress growth.

Each structure is given as a SMILES string.

`c1ccc(-c2nnn(CCCSc3nc4ccccc4s3)n2)cc1`: the growth inhibition (GI) in data set [1] turned out to be 23.4%; in [2] it was 0%; in [3], 13%. Besides, the inhibition of growth at 64 µg/mL with Aspergillus niger came out at 4.4%.
Take `O=S(=O)(CCn1nnc(-c2ccc(Cl)cc2)n1)c1ccccc1`: in the data set on Candida albicans [4], the inhibition of growth at 4 µg/mL amounted to 99.4%. Moreover, the inhibition of growth at 0.5 µg/mL with Candida albicans [5] came to 99.4%. The growth inhibition (GI) is 18.4% in [1], 1.7% in [2] and 1.8% in data set [3]. Further, the inhibition of growth at 64 µg/mL in the data set on Aspergillus niger is 11.2%. Moreover, the inhibition of growth at 0.0313 µg/mL with Candida albicans [6] turned out to be 99%. Further, the inhibition of growth at 0.125 µg/mL in the data set on Candida albicans [7] amounted to 99.3%. For the same molecule, the inhibition of growth at 8 µg/mL in the data set with Candida albicans [8] was found to be 99.5%. In addition, in the data set on Candida albicans [9], the inhibition of growth at 2 µg/mL was 99.4%. Also, the inhibition of growth at 1 µg/mL in the data set on Candida albicans [10] is 99.4%. The inhibition of growth at 0.25 µg/mL with Candida albicans [11] amounted to 99.3%.
As for `C[S+](C)[O-]` [DIMETHYL SULFOXIDE], the Activity entry in [12] is “Non-Toxic”.
Turning to `Clc1ccccc1-c1nnn(CCCSc2nc3ccccc3o2)n1`, the inhibition of growth at 4 µg/mL with Candida albicans [4] worked out at 99.2%. Moreover, the inhibition of growth at 0.5 µg/mL in the data set with Candida albicans [5] came to 98.9%. Also, the Activity with Candida albicans [13] was determined as 100%; in the data set on Candida albicans [14] it was 100%; in the data set on Candida albicans [17] it was 97%; in the data set with Candida albicans [18] it was 100%; in the data set with Candida albicans [19], 100%; in the data set on Candida albicans [20], 100%. For the same molecule, the Activity in the data set on Candida albicans [21] and with Candida albicans [25] was 100% throughout. Further, the results for the growth inhibition (GI) in data set [1], in data set [2] and in data set [3] were 33.4%, 0% and 14.5%, respectively. Moreover, the inhibition of growth at 64 µg/mL with Aspergillus niger turned out to be 6%. Besides, the survival at 96 h in data set [15] was found to be 100%. The MIC was 1 µg/mL in the data set on Candida albicans [16], 1 µg/mL with Candida albicans [23], 1.25 µg/mL with Candida albicans [24] and more than 16 µg/mL in the data set on Candida albicans [26]. The inhibition of growth at 16 µg/mL in the data set with Candida albicans [22] is 99.1%. In addition, the inhibition of growth at 8 µg/mL in the data set on Candida albicans [8] stood at 99.2%. In addition, the inhibition of growth at 2 µg/mL with Candida albicans [9] was found to be 99.1%. The inhibition of growth at 1 µg/mL with Candida albicans [10] was determined as 99.1%.
Turning to `Cc1ccc(-c2nnn(CCCSc3nc4ccccc4o3)n2)cc1`, the growth inhibition (GI) in data set [1] was 43.4%; in [2] it was 0%; in [3], 16%. In addition, the inhibition of growth at 64 µg/mL in the data set on Aspergillus niger came to 11.8%.
Take `O=S(=O)(CCn1nnc(-c2ccccc2)n1)c1ccccc1`: the inhibition of growth at 4 µg/mL in the data set with Candida albicans [4] turned out to be 98.9%. The inhibition of growth at 0.5 µg/mL with Candida albicans [5] is 98.9%. Also, the inhibition of growth at 0.0625 µg/mL with Candida albicans [27] turned out to be 99%. Besides, the growth inhibition (GI) came out at 41.1% in [1], 17.7% in data set [2] and 14.5% in data set [3]. Moreover, the inhibition of growth at 64 µg/mL in the data set on Aspergillus niger amounted to 18.5%. In addition, the inhibition of growth at 0.0313 µg/mL with Candida albicans [6] is 99.1%. The inhibition of growth at 0.125 µg/mL in the data set with Candida albicans [7] was found to be 98.7%. In the data set with Candida albicans [22], the inhibition of growth at 16 µg/mL stood at 99.1%. The inhibition of growth at 8 µg/mL in the data set on Candida albicans [8] is 99.1%. Further, the inhibition of growth at 2 µg/mL in the data set on Candida albicans [9] worked out at 99%. In addition, the inhibition of growth at 1 µg/mL in the data set on Candida albicans [10] was determined as 99%. Also, in the data set on Candida albicans [11], the inhibition of growth at 0.25 µg/mL was 99%.

(Values after ChEMBL document CHEMBL3856287, “Synthesis of novel tetrazole derivatives and evaluation of their antifungal activity” (Bioorg Med Chem, 2016).)
